PubChem BioAssay AID256 (DTP/NCI, 2004)
Several values for one entry are separate records, joined by “and”; a condition that tells them apart may be missing. Equal values may be shown once. Inconclusive results and toxic doses are left out. The calls were made as follows: active = survival T/C of 150% or more; inactive = T/C below 125% in these data.

System: CD2F1 mice, L1210 leukemia ip, survival T/C
Test: NCI In Vivo Anticancer Drug Screen. Data for tumor model L1210 Leukemia (intraperitoneal) in CD2F1 (CDF1) mice
Conditions: higher = longer survival
Outline: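 In this screen, transplantable tumors were grown in mice given either the compound or its vehicle. Results were expressed as the treated measurement relative to the control measurement.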

[1] = endpoint: mean survival time, dose: 100.0 mg/kg/injection, schedule: Q04DX003 (ip), vehicle: saline with Tween-80
[2] = endpoint: mean survival time, dose: 200.0 mg/kg/injection, schedule: Q04DX003 (ip), vehicle: saline with Tween-80
[3] = endpoint: mean survival time, dose: 400.0 mg/kg/injection, schedule: Q04DX003 (ip), vehicle: saline with Tween-80
[4] = endpoint: mean survival time, dose: 100.0 mg/kg/injection, schedule: Q04DX003 (ip), vehicle: saline
[5] = endpoint: mean survival time, dose: 200.0 mg/kg/injection, schedule: Q04DX003 (ip), vehicle: saline
[6] = endpoint: mean survival time, dose: 400.0 mg/kg/injection, schedule: Q04DX003 (ip), vehicle: saline
[7] = endpoint: mean survival time, dose: 100.0 mg/kg/injection, schedule: Q01DX009 (ip), vehicle: saline with Tween-80
[8] = endpoint: mean survival time, dose: 200.0 mg/kg/injection, schedule: Q01DX009 (ip), vehicle: saline with Tween-80
[9] = endpoint: mean survival time, dose: 400.0 mg/kg/injection, schedule: Q01DX009 (ip), vehicle: saline with Tween-80
[10] = endpoint: mean survival time, dose: 100.0 mg/kg/injection, schedule: Q01DX001 (ip), vehicle: saline with Tween-80
[11] = endpoint: mean survival time, dose: 200.0 mg/kg/injection, schedule: Q01DX001 (ip), vehicle: saline with Tween-80
[12] = endpoint: mean survival time, dose: 50.0 mg/kg/injection, schedule: Q01DX009 (ip), vehicle: saline with Tween-80
[13] = endpoint: mean survival time, dose: 400.0 mg/kg/injection, schedule: Q01DX001 (ip), vehicle: saline with Tween-80

Measured: T/C

CC(C)(CCC(=O)c1ccccc1)C(=O)O
inactive: [1] 90 % of control | [2] 94 % of control | [3] 87 % of control

CCC/C=C\CC(C)C(C)CC (configuration not stated)
inactive: [4] 101 % of control | [5] 108 % of control | [6] 104 % of control

O=C(CCCCC(=O)N/N=C/c1cccc([N+](=O)[O-])c1)N/N=C/c1cccc([N+](=O)[O-])c1
inactive: [7] 87 % of control | [8] 87 % of control | [9] 90 % of control

CSc1ncc(N=C=O)c(=O)[nH]1
inactive: [10] 94 % of control | [11] 94 % of control

COC(=O)c1c2ccccc2[n+](C)c2ccccc12
inactive: endpoint: mean survival time, dose: 12.5 mg/kg/injection, schedule: Q01DX009 (ip), vehicle: saline 95 % of control | endpoint: mean survival time, dose: 25.0 mg/kg/injection, schedule: Q01DX009 (ip), vehicle: saline 95 % of control | endpoint: mean survival time, dose: 50.0 mg/kg/injection, schedule: Q01DX009 (ip), vehicle: saline 100 % of control | endpoint: mean survival time, dose: 100.0 mg/kg/injection, schedule: Q01DX001 (ip), vehicle: saline 91 % of control | endpoint: mean survival time, dose: 200.0 mg/kg/injection, schedule: Q01DX001 (ip), vehicle: saline 96 % of control

Clc1nc2nc[nH]c2nc1Cl
inactive: endpoint: mean survival time, dose: 25.0 mg/kg/injection, schedule: Q01DX009 (ip), vehicle: saline sonified 97 % of control | endpoint: mean survival time, dose: 50.0 mg/kg/injection, schedule: Q01DX009 (ip), vehicle: saline sonified 89 % of control | endpoint: mean survival time, dose: 100.0 mg/kg/injection, schedule: Q01DX009 (ip), vehicle: saline sonified 98 % of control

O=S1(=O)CC(Br)C(Br)C1 (configuration not stated)
inactive: [12] 88 % of control | [7] 100 % of control | [1] 106 % of control | [8] 110 % of control | [2] 107 % of control | [3] 100 % of control

O=C(O)c1cc(Br)c(Br)s1
inactive: [1] 94 % of control | [2] 94 % of control

CC(C)(C)N[P+](Cc1ccccc1)(NC(C)(C)C)c1ccccc1
inactive: endpoint: mean survival time, dose: 12.5 mg/kg/injection, schedule: Q04DX003 (ip), vehicle: saline with Tween-80 90 % of control | endpoint: mean survival time, dose: 25.0 mg/kg/injection, schedule: Q04DX003 (ip), vehicle: saline with Tween-80 90 % of control

Oc1cc(O)cc(/C=C/c2ccc(O)c(O)c2)c1
inactive: endpoint: median survival time, dose: 6.25 mg/kg/injection, schedule: Q01DX009 (ip), vehicle: DMSO 103 % of control | endpoint: median survival time, dose: 12.5 mg/kg/injection, schedule: Q01DX009 (ip), vehicle: DMSO 109 % of control | endpoint: median survival time, dose: 25.0 mg/kg/injection, schedule: Q01DX009 (ip), vehicle: DMSO 108 % of control and 109 % of control | endpoint: median survival time, dose: 50.0 mg/kg/injection, schedule: Q01DX009 (ip), vehicle: DMSO 108 % of control and 109 % of control | endpoint: median survival time, dose: 100.0 mg/kg/injection, schedule: Q01DX009 (ip), vehicle: DMSO 109 % of control

C/C(=N\O)c1ccc2[nH]c(C)cc(=O)c2c1
inactive: endpoint: mean survival time, dose: 37.5 mg/kg/injection, schedule: Q01DX009 (ip), vehicle: saline 97 % of control | endpoint: mean survival time, dose: 75.0 mg/kg/injection, schedule: Q01DX009 (ip), vehicle: saline 97 % of control | endpoint: mean survival time, dose: 75.0 mg/kg/injection, schedule: Q04DX003 (ip), vehicle: saline 95 % of control | endpoint: mean survival time, dose: 150.0 mg/kg/injection, schedule: Q01DX009 (ip), vehicle: saline 92 % of control | endpoint: mean survival time, dose: 150.0 mg/kg/injection, schedule: Q04DX003 (ip), vehicle: saline 95 % of control | endpoint: mean survival time, dose: 300.0 mg/kg/injection, schedule: Q04DX003 (ip), vehicle: saline 93 % of control

NCCS[As](=O)(O)SCCN
inactive: endpoint: mean survival time, dose: 12.5 mg/kg/injection, schedule: Q01DX009 (ip), vehicle: saline with Tween-80 97 % of control | endpoint: mean survival time, dose: 12.5 mg/kg/injection, schedule: Q04DX003 (ip), vehicle: saline 101 % of control | endpoint: mean survival time, dose: 25.0 mg/kg/injection, schedule: Q01DX009 (ip), vehicle: saline with Tween-80 103 % of control | endpoint: mean survival time, dose: 25.0 mg/kg/injection, schedule: Q04DX003 (ip), vehicle: saline 98 % of control | [12] 94 % of control | endpoint: mean survival time, dose: 50.0 mg/kg/injection, schedule: Q04DX003 (ip), vehicle: saline 101 % of control

CCC(=O)C(CC)(c1ccc(OC(C)=O)cc1)c1ccc(OC(C)=O)cc1
inactive: [4] 94 % of control | [5] 96 % of control | [6] 96 % of control

COc1cccc(/C=N/NC(=O)CNC(=O)Nc2cccc(Cl)c2)c1OC
inactive: [7] 101 % of control | [8] 109 % of control | [9] 103 % of control

O=Cc1[nH]c(=S)[nH]c(=O)c1Cc1ccc(Cl)cc1
inactive: [1] 104 % of control

COC(=O)C[N+]1(C)C2CCC1CC(Cl)C2 (configuration not stated)
inactive: endpoint: mean survival time, dose: 12.5 mg/kg/injection, schedule: Q01DX001 (ip), vehicle: saline 109 % of control | endpoint: mean survival time, dose: 25.0 mg/kg/injection, schedule: Q01DX001 (ip), vehicle: saline 113 % of control

CC(=O)NC1C=CC(=O)O1 (configuration not stated)
inactive: endpoint: mean survival time, dose: 18.75 mg/kg/injection, schedule: Q01DX001 (ip), vehicle: saline 121 % of control | endpoint: mean survival time, dose: 37.5 mg/kg/injection, schedule: Q01DX001 (ip), vehicle: saline 119 % of control

CCOC(=O)Nc1cc(F)c(F)cc1F
inactive: [7] 98 % of control | [8] 98 % of control

CC(=O)Nc1ccc(C(=O)O)cc1
inactive: [1] 96 % of control | [2] 98 % of control | [3] 100 % of control

Nc1cc(Cl)c(Cl)cc1Cl
inactive: [12] 93 % of control | [7] 106 % of control | [1] 100 % of control | [8] 95 % of control | [2] 94 % of control | [9] 108 % of control

CCCCCCCCCCCCCCCCOc1ccc(S(=O)(=O)NC2CCCCC2)cc1[N+](=O)[O-]
inactive: [1] 90 % of control | [2] 93 % of control | [3] 94 % of control

O=C1N=c2cc([N+](=O)[O-])c([N+](=O)[O-])cc2=N1
inactive: [10] 97 % of control | [11] 103 % of control | [13] 98 % of control

CC(C)CC(Nc1sc([N+](=O)[O-])cc1[N+](=O)[O-])C(=O)O (configuration not stated)
inactive: [10] 105 % of control | [11] 102 % of control | [13] 107 % of control
